Earlier results as cited in patent publication US20130095180A1, “TIME-DELAYED SUSTAINED RELEASE PHARMACEUTICAL COMPOSITION COMPRISING DAPOXETINE FOR ORAL ADMINISTRATION” (NAVIPHARM. CO., LTD., priority 2010, published 2013).

Conditions: background characteristics of the drug

SMILES | Half Life [h] | Tmax
COc1ccc(CN=c2[nH]c(N3CCC[C@H]3CO)ncc2C(=O)NCc2ncccn2)cc1Cl [Avanafil] | 5 to 11 | 0.3 to 0.5 h
CN(C)[C@@H](CCOc1cccc2ccccc12)c1ccccc1 [Dapoxetine, (S)-(+)-N,N-dimethyl-1-phenyl-3-(1-Naphthalenyloxy)-propaneamine] | – | about 1 hour
CCCOc1ccc(S(=O)(=O)NCCC2CCCN2C)cc1-c1nc2c(CCC)nn(C)c2c(=O)[nH]1 (centres unmarked) [Udenafil] | 7 to 12 | 1 h

Now from value to compound:

Half Life [h] | Tmax | SMILES
3 to 4 | – | CCCc1nn(C)c2c(=O)[nH]c(-c3cc(S(=O)(=O)N4CCN(C)CC4)ccc3OCC)nc12 [Sildenafil]
4 to 5 | 0.7 h | CCCc1nc(C)c2c(=O)[nH]c(-c3cc(S(=O)(=O)N4CCN(CC)CC4)ccc3OCC)nn12 [Vardenafil]
